Values of other authors, collected in US20020160947A1, “Synergistic method for prolonging allograft survival” (Millennium Pharmaceuticals, Inc., priority 2001, published 2002).

System: activated T-cells
Settings: activated versus resting T cells

Structure (SMILES): CC(=O)N[C@@H](CSC(=O)[C@]1([C@@H](O)C(C)C)NC(=O)[C@H](C)[C@@H]1O)C(=O)O [lactacystin]
- induction of apoptosis of T cells: induction of apoptosis of activated T-cells, but not resting T cells
